Here are results for 22 compounds from patent publication US10040781B2, “Tank-binding kinase inhibitor compounds” (Gilead Sciences, Inc., priority 2014, dated 2018).

In experiment [1] the target is hJAK2 (Homo sapiens (Human), UniProt O60674). The experiment can be described thus: hJAK2 LANCE TR-FRET enzymatic assay. The settings on record: read-out: JAK2 IC50. It counts as biochemical. (TR-FRET usually uses a lanthanide donor and a delayed reading to cut background.)
The target of experiment [2] is IKKε (Homo sapiens (Human), UniProt Q14164). The experiment is described as follows: IKKε TR-FRET enzymatic assay. As to conditions: read-out: IKKe IC50. The class given is biochemical.
Sequence of IKKε (Q14164 whole entry): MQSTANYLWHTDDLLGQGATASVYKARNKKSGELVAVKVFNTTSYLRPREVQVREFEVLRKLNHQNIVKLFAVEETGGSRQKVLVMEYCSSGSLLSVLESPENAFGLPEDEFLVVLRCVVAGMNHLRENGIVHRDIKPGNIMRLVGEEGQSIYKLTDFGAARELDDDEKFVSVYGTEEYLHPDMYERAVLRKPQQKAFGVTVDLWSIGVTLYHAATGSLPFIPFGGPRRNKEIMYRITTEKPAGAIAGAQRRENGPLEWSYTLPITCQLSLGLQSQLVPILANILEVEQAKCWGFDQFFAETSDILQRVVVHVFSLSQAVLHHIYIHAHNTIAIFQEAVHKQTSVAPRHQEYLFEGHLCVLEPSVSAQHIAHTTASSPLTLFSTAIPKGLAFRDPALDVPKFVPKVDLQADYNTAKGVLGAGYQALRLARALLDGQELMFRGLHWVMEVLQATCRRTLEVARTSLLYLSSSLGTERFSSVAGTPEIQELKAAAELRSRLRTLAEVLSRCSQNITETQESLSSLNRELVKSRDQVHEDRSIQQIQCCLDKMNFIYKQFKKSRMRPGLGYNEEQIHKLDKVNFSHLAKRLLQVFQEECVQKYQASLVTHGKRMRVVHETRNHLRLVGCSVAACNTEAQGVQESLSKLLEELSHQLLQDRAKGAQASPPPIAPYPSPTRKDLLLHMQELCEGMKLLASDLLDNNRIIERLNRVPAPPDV
Experiment [3] deals with TBK1 (Homo sapiens (Human), UniProt Q9UHD2). The experiment is described as follows: TBK1 TR-FRET enzymatic assay.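 Note: phosphorylation of a biotinylated Ser/Thr peptide by purified full-length recombinant TBK1, read by TR-FRET after 240 min at 25 °C, IC50 is the geometric mean of at least four runs.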
Sequence of TBK1 (Q9UHD2 whole entry): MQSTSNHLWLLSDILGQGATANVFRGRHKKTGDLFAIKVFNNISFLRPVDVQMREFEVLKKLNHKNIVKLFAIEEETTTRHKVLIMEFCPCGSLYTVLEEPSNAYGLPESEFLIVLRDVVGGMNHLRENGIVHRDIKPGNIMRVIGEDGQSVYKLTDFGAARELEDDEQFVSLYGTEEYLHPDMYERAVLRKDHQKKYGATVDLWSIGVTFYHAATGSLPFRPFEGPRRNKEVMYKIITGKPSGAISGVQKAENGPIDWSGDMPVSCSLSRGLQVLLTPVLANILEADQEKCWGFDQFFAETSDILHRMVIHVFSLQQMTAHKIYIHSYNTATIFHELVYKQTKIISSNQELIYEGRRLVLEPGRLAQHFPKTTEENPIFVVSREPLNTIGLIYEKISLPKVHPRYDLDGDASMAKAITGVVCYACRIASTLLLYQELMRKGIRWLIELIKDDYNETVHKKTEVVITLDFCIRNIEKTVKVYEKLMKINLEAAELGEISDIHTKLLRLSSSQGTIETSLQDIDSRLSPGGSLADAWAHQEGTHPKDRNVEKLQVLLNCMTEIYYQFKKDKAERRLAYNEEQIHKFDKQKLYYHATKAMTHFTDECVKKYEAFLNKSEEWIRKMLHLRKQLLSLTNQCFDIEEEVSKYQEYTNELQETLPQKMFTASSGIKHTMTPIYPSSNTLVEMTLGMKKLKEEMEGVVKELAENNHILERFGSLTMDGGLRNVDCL
Setting [4] is: TR-FRET, 2×Km ATP, geometric mean of minimum four determinations.

As usually defined, the IC50 is the concentration that gives 50% inhibition.

SMILES strings stand for the structures. Where two headings read alike, the source gives them in different places. Bounds are passed on as bounds.

Sequence of hJAK2 (O60674 whole entry): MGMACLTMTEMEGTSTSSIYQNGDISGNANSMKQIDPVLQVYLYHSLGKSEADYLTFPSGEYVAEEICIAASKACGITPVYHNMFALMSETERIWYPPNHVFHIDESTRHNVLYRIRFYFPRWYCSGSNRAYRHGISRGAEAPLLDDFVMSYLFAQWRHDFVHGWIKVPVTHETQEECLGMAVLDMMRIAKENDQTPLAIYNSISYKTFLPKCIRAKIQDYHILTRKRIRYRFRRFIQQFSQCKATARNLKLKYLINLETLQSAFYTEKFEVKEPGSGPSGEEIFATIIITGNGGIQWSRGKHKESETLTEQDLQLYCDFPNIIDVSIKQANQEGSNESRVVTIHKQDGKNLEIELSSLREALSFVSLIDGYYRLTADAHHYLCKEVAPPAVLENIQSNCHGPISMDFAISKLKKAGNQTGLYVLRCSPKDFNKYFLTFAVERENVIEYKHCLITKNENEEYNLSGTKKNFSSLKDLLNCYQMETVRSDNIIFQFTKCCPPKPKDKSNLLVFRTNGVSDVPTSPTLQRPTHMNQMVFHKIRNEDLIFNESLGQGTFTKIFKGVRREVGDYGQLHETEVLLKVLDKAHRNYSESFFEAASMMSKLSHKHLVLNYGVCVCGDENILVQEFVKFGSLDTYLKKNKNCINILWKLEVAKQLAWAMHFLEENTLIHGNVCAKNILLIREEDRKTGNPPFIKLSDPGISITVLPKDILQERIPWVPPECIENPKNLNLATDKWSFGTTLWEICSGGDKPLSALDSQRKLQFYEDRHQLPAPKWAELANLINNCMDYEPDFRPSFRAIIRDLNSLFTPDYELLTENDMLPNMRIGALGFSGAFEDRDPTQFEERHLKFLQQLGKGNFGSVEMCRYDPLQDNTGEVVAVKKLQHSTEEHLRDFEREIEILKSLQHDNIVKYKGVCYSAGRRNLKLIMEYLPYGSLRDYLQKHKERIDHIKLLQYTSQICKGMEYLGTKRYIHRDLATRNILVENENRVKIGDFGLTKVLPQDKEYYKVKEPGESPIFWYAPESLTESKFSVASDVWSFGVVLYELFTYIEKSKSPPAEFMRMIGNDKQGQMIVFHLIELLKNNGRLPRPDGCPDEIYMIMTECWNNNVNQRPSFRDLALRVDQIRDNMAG

With `C[C@@H](N)C(=O)N1CC[C@H](Oc2ccc(-c3ncnc(Nc4ccc(N5CCN(C6COC6)CC5)cc4)n3)cc2C#N)[C@H](F)C1` [Example 433, 2-(((3R,4S)-1-((R)-2-aminopropanoyl)-3-fluoropiperidin-4-yl)oxy)-5-(4-((4-(4-(oxetan-3-yl)piperazin-1-yl)phenyl)amino)-1,3,5-triazin-2-yl)benzonitrile], the IC50 in experiment [1] is at least 1000 nM; in experiment [2] (setting [4]) it was 283 nM; in experiment [3] it was 76 nM.

On to `CC(C)(O)c1ccc(Nc2ncnc(-c3ccc(OC4CCOCC4)c(C#N)c3)n2)cc1` [Example 40, 5-(4-((4-(2-hydroxypropan-2-yl)phenyl)amino)-1,3,5-triazin-2-yl)-2-((tetrahydro-2H-pyran-4-yl)oxy)benzonitrile], for which the IC50 in experiment [1] was over 1000 nM; in experiment [2] it was 23 nM; in experiment [3], 6 nM.

Take `N#Cc1cc(-c2ncnc(Nc3ccc(N4CCN(C5COC5)CC4)cc3)n2)ccc1O[C@@H]1CCNC1` [Example 93, (R)-5-(4-((4-(4-(oxetan-3-yl)piperazin-1-yl)phenyl)amino)-1,3,5-triazin-2-yl)-2-(pyrrolidin-3-yloxy)benzonitrile]: the IC50 came to 961 nM in experiment [1], 120 nM in experiment [2] and 30 nM in experiment [3].

On to `N#Cc1cc(-c2ncnc(Nc3ccc(N4CCN(C5COC5)CC4)cc3)n2)ccc1O[C@H]1CCN(C(=O)[C@@H]2CCCC(=O)N2)C[C@H]1F` [Example 117, 2-(((3R,4S)-3-fluoro-1-((S)-6-oxopiperidine-2-carbonyl)piperidin-4-yl)oxy)-5-(4-((4-(4-(oxetan-3-yl)piperazin-1-yl)phenyl)amino)-1,3,5-triazin-2-yl)benzonitrile], for which the IC50 is 342 nM in experiment [1], 4 nM in experiment [2] and 3 nM in experiment [3].

Regarding `N#Cc1cc(-c2ncnc(Nc3ccc(N4CCN(C5COC5)CC4)cc3)n2)ccc1O[C@H]1CCN(C(=O)c2cnco2)C[C@H]1F` [Example 473, 2-(((3R,4S)-3-fluoro-1-(oxazole-5-carbonyl)piperidin-4-yl)oxy)-5-(4-((4-(4-(oxetan-3-yl)piperazin-1-yl)phenyl)amino)-1,3,5-triazin-2-yl)benzonitrile], the results for the IC50 in experiment [1], in experiment [2] (setting [4]) and in experiment [3] were 771 nM, 3 nM and 3 nM, respectively.

Take `C[C@H](O)C(=O)N1CC[C@H](Oc2ccc(-c3ncnc(Nc4cccc(C(C)(C)O)c4)n3)cc2C#N)[C@H](F)C1` [Example 486, 2-(((3R,4S)-3-fluoro-1-((S)-2-hydroxypropanoyl)piperidin-4-yl)oxy)-5-(4-((3-(2-hydroxypropan-2-yl)phenyl)amino)-1,3,5-triazin-2-yl)benzonitrile]: the IC50 came to 767 nM in experiment [1], 5 nM in experiment [2] (setting [4]) and 3 nM in experiment [3].

As for `Cc1cc(Nc2ncnc(-c3ccc(N4C[C@H](O)C[C@@H]4C)c(C#N)c3)n2)ccc1N1CCN(C2COC2)CC1` [Example 534, 2-((2S,4R)-4-hydroxy-2-methylpyrrolidin-1-yl)-5-(4-((3-methyl-4-(4-(oxetan-3-yl)piperazin-1-yl)phenyl)amino)-1,3,5-triazin-2-yl)benzonitrile], the values for the IC50 in experiment [1], in experiment [2] (setting [4]) and in experiment [3] were 32 nM, 7 nM and 4 nM, respectively.

In the case of `N#Cc1cc(-c2ncnc(Nc3ccc(N4CCN(C5COC5)CC4)cc3)n2)ccc1O[C@@H]1CCN(C=O)C1` [Example 95, (R)-2-((1-formylpyrrolidin-3-yl)oxy)-5-(4-((4-(4-(oxetan-3-yl)piperazin-1-yl)phenyl)amino)-1,3,5-triazin-2-yl)benzonitrile], the half-inhibitory concentration (IC50) is 377 nM in experiment [1], 21 nM in experiment [2] and 7 nM in experiment [3].

Turning to `N#Cc1cc(-c2ncnc(Nc3ccc(N4CCN(C5COC5)CC4)cc3)n2)ccc1O[C@H]1CCN(C(=O)c2cc[nH]c(=O)c2)C[C@H]1F` [Example 137, 2-(((3R,4S)-3-fluoro-1-(2-oxo-1,2-dihydropyridine-4-carbonyl)piperidin-4-yl)oxy)-5-(4-((4-(4-(oxetan-3-yl)piperazin-1-yl)phenyl)amino)-1,3,5-triazin-2-yl)benzonitrile], the values for the IC50 in experiment [1], in experiment [2] and in experiment [3] were 207 nM, 32 nM and 19 nM, respectively.

On to `N#Cc1cc(-c2ncnc(Nc3ccc(N4CCOCC4)cc3)n2)ccc1N1CCCC1` [Example 53, 5-(4-((4-morpholinophenyl)amino)-1,3,5-triazin-2-yl)-2-(pyrrolidin-1-yl)benzonitrile], for which the figures for the IC50 in experiment [1], in experiment [2] and in experiment [3] were 261 nM, 18 nM and 5 nM, respectively.

For the compound `N#Cc1cc(-c2ncnc(Nc3ccc(C(N)=O)cc3)n2)ccc1OC1CCOCC1` [Example 55], the results for the IC50 in experiment [1], in experiment [2] and in experiment [3] were over 1000 nM, 5 nM and 2 nM, respectively.

On to `N#Cc1cc(-c2ncnc(Nc3ccc(N4CCN(C5COC5)CC4)cc3)n2)ccc1N1CC[C@@H](O)C1` [Example 202, (R)-2-(3-hydroxypyrrolidin-1-yl)-5-(4-((4-(4-(oxetan-3-yl)piperazin-1-yl)phenyl)amino)-1,3,5-triazin-2-yl)benzonitrile], for which the half-maximal inhibitory concentration (IC50) in experiment [1] was 192 nM; in experiment [2], 13 nM; in experiment [3] it was 3 nM.

`N#Cc1cc(-c2ncnc(Nc3ccc(N4CCN(C5COC5)CC4)cc3)n2)ccc1OCC1CNC(=O)O1` (stereo not drawn) [Example 607, 5-(4-((4-(4-(oxetan-3-yl)piperazin-1-yl)phenyl)amino)-1,3,5-triazin-2-yl)-2-((2-oxooxazolidin-5-yl)methoxy)benzonitrile]: the half-inhibitory concentration (IC50) in experiment [1] is 161 nM; in experiment [2], 16 nM; in experiment [3] it was 21 nM.

As for `CC(C)(O)c1cccc(Nc2ncnc(-c3ccc(OC4CCOCC4)c(C#N)c3)n2)c1` [Example 47, 5-(4-((3-(2-hydroxypropan-2-yl)phenyl)amino)-1,3,5-triazin-2-yl)-2-((tetrahydro-2H-pyran-4-yl)oxy)benzonitrile], the IC50 came to 811 nM in experiment [1], 14 nM in experiment [2] and 2 nM in experiment [3].

Consider `N#Cc1cc(-c2ncnc(Nc3ccc(N4CCN(C5COC5)CC4)cc3)n2)ccc1O[C@H]1CCN(C(=O)[C@@H](O)CO)CC1(F)F` [Example 581, 2-(((S)-1-((S)-2,3-dihydroxypropanoyl)-3,3-difluoropiperidin-4-yl)oxy)-5-(4-((4-(4-(oxetan-3-yl)piperazin-1-yl)phenyl)amino)-1,3,5-triazin-2-yl)benzonitrile], for which the IC50 came to 86 nM in experiment [1], 1 nM in experiment [2] (setting [4]) and 2 nM in experiment [3].

Turning to `N#Cc1cc(-c2ncnc(Nc3ccc(C(=O)C(F)(F)F)cc3)n2)ccc1OC1CCOCC1` [Example 68, 2-((tetrahydro-2H-pyran-4-yl)oxy)-5-(4-((4-(2,2,2-trifluoroacetyl)phenyl)amino)-1,3,5-triazin-2-yl)benzonitrile], the IC50 is 415 nM in experiment [1], 11 nM in experiment [2] and 2 nM in experiment [3].

`CC(C)(C)n1cc(Nc2ncnc(-c3ccc(O[C@H]4CCN(C(=O)[C@@H](O)CO)C[C@H]4F)c(C#N)c3)n2)cn1` [Example 419, 5-(4-((1-(tert-butyl)-1H-pyrazol-4-yl)amino)-1,3,5-triazin-2-yl)-2-(((3R,4S)-1-((S)-2,3-dihydroxypropanoyl)-3-fluoropiperidin-4-yl)oxy)benzonitrile]: the IC50 in experiment [1] stood at 228 nM; in experiment [2] (setting [4]), 2 nM; in experiment [3], 2 nM.

In the case of `COc1cc(Nc2ncnc(-c3ccc(O[C@H]4CCN(C(=O)CC#N)C[C@H]4F)c(C#N)c3)n2)ccc1N1CCC(N2CCOCC2)CC1` [Example 327, 2-(((3R,4S)-1-(2-cyanoacetyl)-3-fluoropiperidin-4-yl)oxy)-5-(4-((3-methoxy-4-(4-morpholinopiperidin-1-yl)phenyl)amino)-1,3,5-triazin-2-yl)benzonitrile], the IC50 in experiment [1] was found to be 62 nM; in experiment [2] it was 2 nM; in experiment [3], 4 nM.

For `C[C@H](O)C(=O)N1CC[C@H](Oc2ccc(-c3ncnc(Nc4cnc(N5CCN(C6COC6)CC5)c(F)c4)n3)cc2C#N)[C@H](F)C1` [Example 358, 2-(((3R,4S)-3-fluoro-1-((S)-2-hydroxypropanoyl)piperidin-4-yl)oxy)-5-(4-((5-fluoro-6-(4-(oxetan-3-yl)piperazin-1-yl)pyridin-3-yl)amino)-1,3,5-triazin-2-yl)benzonitrile], the IC50 is at least 1000 nM in experiment [1], 11 nM in experiment [2] and 6 nM in experiment [3].

Regarding `CN1CCC(c2ccc(Nc3ncnc(-c4ccc(OC5CCOCC5)c(C#N)c4)n3)cc2)CC1` [Example 76, 5-(4-((4-(1-methylpiperidin-4-yl)phenyl)amino)-1,3,5-triazin-2-yl)-2-((tetrahydro-2H-pyran-4-yl)oxy)benzonitrile], the IC50 in experiment [1] is 575 nM; in experiment [2], 3 nM; in experiment [3], 1 nM.

In the case of `CC(N)C(=O)N1CC[C@H](Oc2ccc(-c3ncnc(Nc4ccc(N5CCN(C6COC6)CC5)cc4)n3)cc2C#N)[C@H](F)C1` (stereo in doubt) [Example 434, 2-(((3R,4S)-1-((R)-2-aminopropanoyl)-3-fluoropiperidin-4-yl)oxy)-5-(4-((4-(4-(oxetan-3-yl)piperazin-1-yl)phenyl)amino)-1,3,5-triazin-2-yl)benzonitrile], the IC50 worked out at 865 nM in experiment [1], 42 nM in experiment [2] (setting [4]) and 20 nM in experiment [3].

Regarding `N#Cc1cc(-c2ncnc(Nc3ccc(N4CCN(C5COC5)CC4)cc3)n2)ccc1O[C@H]1CCN(C(=O)c2ccncn2)C[C@H]1F` [Example 337, 2-(((3R,4S)-3-fluoro-1-(pyrimidine-4-carbonyl)piperidin-4-yl)oxy)-5-(4-((4-(4-(oxetan-3-yl)piperazin-1-yl)phenyl)amino)-1,3,5-triazin-2-yl)benzonitrile], the IC50 in experiment [1] was 572 nM; in experiment [2], 7 nM; in experiment [3] it was 4 nM.
